According to patent US9884043B2, “RORgammaT inhibitors” (Merck Sharp & Dohme Corp., priority 2011, dated 2018):

Legend:
6His(GST)RORgamma-LBD = molecular target: T1, 6His(GST)RORgamma-LBD (Homo sapiens, UniProt P51449); test: TR-FRET assay (Protocol A), RORgamma-LBD / SRC1_2 co-activator peptide interaction; assay type: biochemical; conditions: SRC1_2 peptide 0.1 μM, RORgamma-LBD 10 nM, overnight incubation at 4° C.
T1 construct: the applied RORgamma-LBD contains a 6-His and GST tag; GST (N); made in house; host or cells: baculovirus-infected Sf-21 insect cells
T1 sequence (P51449 269-508 limits assumed): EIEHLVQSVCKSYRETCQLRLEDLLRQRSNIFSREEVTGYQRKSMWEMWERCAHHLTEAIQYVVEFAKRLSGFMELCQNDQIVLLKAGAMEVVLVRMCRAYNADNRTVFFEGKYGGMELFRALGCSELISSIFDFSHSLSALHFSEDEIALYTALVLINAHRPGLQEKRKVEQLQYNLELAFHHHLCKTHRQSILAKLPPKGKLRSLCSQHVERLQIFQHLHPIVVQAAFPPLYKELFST
Description: (§1) Activation of RORgammaT activity can be measured using e.g. biochemical TR-FRET assay. In such an assay, interaction of cofactor-derived peptides with human RORgammaT-Ligand Binding Domain (LBD) can be measured.
(§2) To identify novel antagonists of RORgammaT, an assay was developed which employs the interaction of RORgammaT with its co-activator peptide SRC1_2. […] The assay was run following three slightly different protocols, i.e. Protocol A, Protocol B, and Protocol C, which are described below.
TR-FRET Assay (Protocol A)
The 6His(GST)RORgamma-LBD was expressed and purified from baculovirus infected Sf-21 insect cells (Bac-to-BAC, Invitrogen) and purified using glutathione sepharose chromatography (GE healthcare). Biotin and His function as anchoring points for streptavidin-allophycocyanin (Strep-APC, Perkin Elmer, C130-100) and anti-His-Europium Cryptate (Perkin Elmer, AD0111), respectively. Since energy transfer between the streptavidin and His-coupled labels APC and europium cryptate can only take place when these labels are in close proximity, measurement of energy transfer in a mixture of biotinylated peptide, His-GR-LBD, streptavidin-APC and anti-His-Europium Cryptate will be indicative for RORy-LBD/peptide binding. […] Changes in peptide binding caused by dose-curves of compounds added to the reaction mixture (DMSO concentration 0.1%), can likewise be monitored.

HIS-tagged RORγ-LBD = molecular target: T2, HIS-tagged RORγ-LBD (Homo sapiens, UniProt P51449); test: TR-FRET assay (Protocol B), RORγ-LBD lysate / biotinylated SRC1-2 LXXLL peptide; assay type: biochemical; conditions: unpurified RORγ-LBD lysate ~10 nM, SRC1-2 peptide 450 nM
T2 construct: HIS-tagged RORγ-LBD was recombinantly expressed in SF9 cells using a baculovirus expression system; made in house; host or cells: SF9 cells, baculovirus; crude lysate used
T2 sequence (P51449 269-508 limits assumed): T1 sequence (P51449 269-508 limits assumed)
Description: as §1, §2
TR-Fret Assay (Protocol B)
HIS-tagged RORγ-LBD was recombinantly expressed in SF9 cells using a baculovirus expression system. The protein was not purified. Cells were lysed and the lysate was used as a source for RORγ-LBD for the assay. A 1:80 dilution of RORγ-LBD lysate in assay buffer (25 mM HEPES pH 7.0, 100 mM NaCl, 0.01% Tween, 0.1% BSA) was prepared and 5 μL was added to each well (RORγ-LBD final concentration ˜10 nM). Control wells received lysate from SF9 cells not expressing RORγ-LBD.
Compounds to be tested were diluted to 100× final test concentration in DMSO and further diluted to 4× final test concentration using assay buffer to provide the test compound mixture. An aliquot (5 μL) of the test compound mixture was added to each well.

Structure (SMILES)	EC50 (6His(GST)RORgamma-LBD) [nM]	other results
O=C(O)c1ccc(-c2nn(C(=O)c3c(Cl)cccc3Cl)c3ccccc23)cc1 [Example 1, 4-(1-(2,6-dichlorobenzoyl)-1H-indazol-3-yl)benzoic acid]	10.7	–
O=C(O)c1ccc(-c2nn(C(=O)c3c(Cl)cccc3Cl)c3ccc(F)cc23)cc1 [Example 2, 4-(1-(2,6-dichlorobenzoyl)-5-fluoro-1H-indazol-3-yl)benzoic acid]	245	–
O=C(O)c1ccc(-c2nn(C(=O)c3c(Cl)cccc3Cl)c3c(F)cccc23)cc1 [Example 3, 4-(1-(2,6-dichlorobenzoyl)-7-fluoro-1H-indazol-3-yl)benzoic acid]	18.6	–
O=C(O)c1ccc(-c2nn(C(=O)c3c(Cl)cccc3Cl)c3cccc(F)c23)cc1 [Example 4, 4-(1-(2,6-dichlorobenzoyl)-4-fluoro-1H-indazol-3-yl)benzoic acid]	8.32	–
O=C(O)c1ccc(-c2nn(C(=O)c3c(Cl)cccc3Cl)c3cc(F)ccc23)cc1 [Example 5, 4-(1-(2,6-dichlorobenzoyl)-6-fluoro-1H-indazol-3-yl)benzoic acid]	174	–
O=C(O)c1ccc(-c2nn(C(=O)c3c(Cl)cccc3Cl)c3cccnc23)cc1 [Example 6A, 4-(1-(2,6-dichlorobenzoyl)-1H-pyrazolo[4,3-b]pyridin-3-yl)benzoic acid]	13.5	–
O=C(O)c1ccc(-c2nn(C(=O)c3ccccc3C(F)(F)F)c3cccnc23)cc1 [Example 6B, 4-(1-(2-(trifluoromethyl)benzoyl)-1H-pyrazolo[4,3-b]pyridin-3-yl)benzoic acid]	224	–
O=C(O)c1ccc(-c2cn(C(=O)c3c(Cl)cccc3Cl)c3cccnc23)cc1 [Example 7, 4-(1-(2,6-dichlorobenzoyl)-1H-pyrrolo[3,2-b]pyridin-3-yl)benzoic acid]	14.1	–
O=C(O)c1ccc(-c2nn(C(=O)c3c(Cl)cccc3Cl)c3ccncc23)cc1 [Example 8, 4-(1-(2,6-dichlorobenzoyl)-1H-pyrazolo[4,3-c]pyridin-3-yl)benzoic acid]	4900	–
O=S(=O)(c1ccccc1C(F)(F)F)n1nc(-c2ccc(C(O)(C(F)(F)F)C(F)(F)F)cc2)c2ccccc21 [Example 9, 1,1,1,3,3,3-hexafluoro-2-(4-(1-(2-(trifluoromethyl)phenylsulfonyl)-1H-indazol-3-yl)phenyl)propan-2-ol]	9330	–
O=C(O)c1ccc(-c2nn(C(=O)c3c(Cl)cncc3Cl)c3ccccc23)cc1 [Example 11A, 4-(1-(3,5-dichloroisonicotinoyl)-1H-indazol-3-yl)benzoic acid]	339	–
O=C(O)c1ccc(-c2nn(C(=O)c3ccccc3Br)c3ccccc23)cc1 [Example 11B, 4-(1-(2-bromobenzoyl)-1H-indazol-3-yl)benzoic acid]	44.7	–
COC(=O)c1ccccc1C(=O)n1nc(-c2ccc(C(=O)O)cc2)c2ccccc21 [Example 11C, 4-(1-(2-(methoxycarbonyl)benzoyl)-1H-indazol-3-yl)benzoic acid]	513	–
O=C(O)c1ccc(-c2nn(C(=O)C3CCCCC3)c3ccccc23)cc1 [Example 11D, 4-(1-(cyclohexanecarbonyl)-1H-indazol-3-yl)benzoic acid]	525	–
O=C(O)c1ccc(-c2nn(C(=O)c3c(Cl)cccc3Br)c3ccccc23)cc1 [Example 11E, 4-(1-(2-bromo-6-chlorobenzoyl)-1H-indazol-3-yl)benzoic acid]	26.9	–
O=C(O)c1ccc(-c2nn(C(=O)c3c(F)cccc3C(F)(F)F)c3ccccc23)cc1 [Example 11F, 4-(1-(2-fluoro-6-(trifluoromethyl)benzoyl)-1H-indazol-3-yl)benzoic acid]	39.8	–
COc1cccc(F)c1C(=O)n1nc(-c2ccc(C(=O)O)cc2)c2ccccc21 [Example 11G, 4-(1-(2-fluoro-6-methoxybenzoyl)-1H-indazol-3-yl)benzoic acid]	60.3	–

Structure (SMILES)	EC50 (6His(GST)RORgamma-LBD) [nM]	other results
O=C(O)c1ccc(-c2nn(C(=O)c3c(Cl)cc(Cl)cc3Cl)c3ccccc23)cc1 [Example 11H, 4-(1-(2,4,6-trichlorobenzoyl)-1H-indazol-3-yl)benzoic acid]	70.8	–
Cc1cccc(C)c1C(=O)n1nc(-c2ccc(C(=O)O)cc2)c2ccccc21 [Example 11I, 4-(1-(2,6-dimethylbenzoyl)-1H-indazol-3-yl)benzoic acid]	72.4	–
CCOc1ccccc1C(=O)n1nc(-c2ccc(C(=O)O)cc2)c2ccccc21 [Example 11J, 4-(1-(2-ethoxybenzoyl)-1H-indazol-3-yl)benzoic acid]	1910	–
O=C(O)c1ccc(-c2nn(C(=O)c3cccc(Cl)c3Cl)c3ccccc23)cc1 [Example 11K, 4-(1-(2,3-dichlorobenzoyl)-1H-indazol-3-yl)benzoic acid]	21.4	–
O=C(O)c1ccc(-c2nn(C(=O)c3ccccc3Cl)c3ccccc23)cc1 [Example 11L, 4-(1-(2-chlorobenzoyl)-1H-indazol-3-yl)benzoic acid]	26.3	–
Cc1cccc([N+](=O)[O-])c1C(=O)n1nc(-c2ccc(C(=O)O)cc2)c2ccccc21 [Example 11N, 4-(1-(2-methyl-6-nitrobenzoyl)-1H-indazol-3-yl)benzoic acid]	25.7	–
O=C(O)c1ccc(-c2nn(S(=O)(=O)c3ccccc3C(F)(F)F)c3ccccc23)cc1 [Example 12, 4-(1-(2-(trifluoromethyl)phenylsulfonyl)-1H-indazol-3-yl)benzoic acid]	–	pEC50 (6His(GST)RORgamma-LBD): 7.17
O=C(O)c1ccc(-c2nn(S(=O)(=O)c3cccc4cccnc34)c3ccccc23)cc1 [Example 13A, 4-(1-(quinolin-8-ylsulfonyl)-1H-indazol-3-yl)benzoic acid]	155	–
O=C(O)c1ccc(-c2nn(S(=O)(=O)c3ccccc3Br)c3ccccc23)cc1 [Example 13B, 4-(1-(2-bromophenylsulfonyl)-1H-indazol-3-yl)benzoic acid]	79.4	–
O=C(O)c1ccc(-c2nn(C(=O)c3c(Cl)cccc3C(F)(F)F)c3cccc(F)c23)c(O)c1 [Example 26E, 4-(1-(2-chloro-6-(trifluoromethyl)benzoyl)-4-fluoro-1H-indazol-3-yl)-3-hydroxybenzoic acid]	–	IC50 (HIS-tagged RORγ-LBD): < 50 nM
O=C(O)c1ccc(-c2nn(C(=O)c3c(Cl)cccc3C(F)(F)F)c3cccnc23)cc1O [Example 26H, 4-(1-(2-chloro-6-(trifluoromethyl)benzoyl)-1H-pyrazolo[4,3-b]pyridin-3-yl)-2-hydroxybenzoic acid]	–	IC50 (HIS-tagged RORγ-LBD): < 50 nM
CC(=O)Oc1cc(-c2nn(C(=O)c3c(Cl)cccc3C(F)(F)F)c3cccnc23)ccc1C(=O)O [Example 26I, 2-acetoxy-4-(1-(2-chloro-6-(trifluoromethyl)benzoyl)-1H-pyrazolo[4,3-b]pyridin-3-yl)benzoic acid]	–	IC50 (HIS-tagged RORγ-LBD): < 50 nM
CN(C)C(=O)c1ccc2c(-c3ccc(C(=O)O)c(O)c3)nn(C(=O)c3c(Cl)cccc3C(F)(F)F)c2c1 [Example 26J, 4-(1-(2-chloro-6-(trifluoromethyl)benzoyl)-6-(dimethyl-carbamoyl)-1H-indazol-3-yl)-2-hydroxybenzoic acid]	–	IC50 (HIS-tagged RORγ-LBD): < 50 nM
NCc1ccc2c(-c3ccc(C(=O)O)cc3)nn(C(=O)c3c(Cl)cccc3C(F)(F)F)c2c1 [Example 27A, 4-(6-(aminomethyl)-1-(2-chloro-6-(trifluoromethyl)benzoyl)-1H-indazol-3-yl)benzoic acid]	–	IC50 (HIS-tagged RORγ-LBD): < 50 nM
NCc1ccc2c(-c3ccc(C(=O)O)cc3F)nn(C(=O)c3c(Cl)cccc3C(F)(F)F)c2c1 [Example 27B, 4-(6-(aminomethyl)-1-(2-chloro-6-(trifluoromethyl)benzoyl)-1H-indazol-3-yl)-3-fluorobenzoic acid]	–	IC50 (HIS-tagged RORγ-LBD): < 50 nM
O=C(O)c1ccc(-c2nn(C(=O)c3c(Cl)cccc3C(F)(F)F)c3ccccc23)cc1C(F)F [Example 28, 4-(1-(2-chloro-6-(trifluoromethyl)benzoyl)-1H-indazol-3-yl)-2-(difluoromethyl)benzoic acid]	–	IC50 (HIS-tagged RORγ-LBD): < 50 nM
N#Cc1ccc2c(-c3ccc(C(=O)O)cc3)nn(C(=O)c3c(Cl)cccc3C(F)(F)F)c2c1 [Example 29, 4-(1-(2-chloro-6-(trifluoromethyl)benzoyl)-6-cyano-1H-indazol-3-yl)benzoic acid]	–	IC50 (HIS-tagged RORγ-LBD): 50 to 500 nM
